Test results as given in patent US6812250B2, “Carboxamide-substituted phenylurea derivatives, process for their preparation and their use as medicaments” (Aventis Pharma Deutschland GmbH, priority 2001, dated 2004).

Molecular target: T1, human glycogen phosphorylase a (Homo sapiens, UniProt P06737)
T1 sequence (P06737 1-847): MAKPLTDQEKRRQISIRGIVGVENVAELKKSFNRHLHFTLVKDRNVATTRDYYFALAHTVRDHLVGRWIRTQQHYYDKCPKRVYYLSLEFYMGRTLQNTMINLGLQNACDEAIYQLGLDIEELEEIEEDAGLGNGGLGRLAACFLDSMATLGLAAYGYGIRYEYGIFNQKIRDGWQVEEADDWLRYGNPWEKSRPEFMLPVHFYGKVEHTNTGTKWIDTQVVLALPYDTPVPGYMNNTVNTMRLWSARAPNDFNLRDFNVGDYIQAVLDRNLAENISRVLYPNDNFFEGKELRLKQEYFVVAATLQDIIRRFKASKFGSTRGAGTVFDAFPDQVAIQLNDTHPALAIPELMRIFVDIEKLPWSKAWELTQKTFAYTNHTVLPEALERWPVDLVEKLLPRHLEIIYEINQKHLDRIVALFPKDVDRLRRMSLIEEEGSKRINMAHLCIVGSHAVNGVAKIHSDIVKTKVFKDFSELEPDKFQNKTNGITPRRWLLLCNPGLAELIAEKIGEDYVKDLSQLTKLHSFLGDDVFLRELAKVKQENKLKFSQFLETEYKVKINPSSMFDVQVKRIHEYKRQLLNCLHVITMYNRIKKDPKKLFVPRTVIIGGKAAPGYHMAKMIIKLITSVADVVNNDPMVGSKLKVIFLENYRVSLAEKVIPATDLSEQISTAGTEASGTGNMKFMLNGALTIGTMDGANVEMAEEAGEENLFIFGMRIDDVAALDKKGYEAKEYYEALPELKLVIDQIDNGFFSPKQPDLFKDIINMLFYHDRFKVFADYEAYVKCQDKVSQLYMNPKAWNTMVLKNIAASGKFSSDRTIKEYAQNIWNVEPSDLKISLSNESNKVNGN
Experiment: Glycogen phosphorylase a activity assay
Assay type: biochemical
Conditions: 10 μM test substance; GPa activity measured in the reverse direction (glycogen synthesis from glucose 1-phosphate, liberated inorganic phosphate, absorption at 820 nm); in vitro
Method: Glycogen Phosphorylase a Activity Assay
The effect of compounds on the activity of the active form of glycogen phosphorylase (GPa) was measured in the reverse direction by following the synthesis of glycogen from glucose 1-phosphate by determining the liberation of inorganic phosphate. All the reactions were carried out as duplicate determinations in microtiter plates with 96 wells (Half Area Plates, Costar No 3696), measuring the change in absorption owing to the formation of the reaction product at the wavelength specified hereinafter in a Multiskan Ascent Elisa Reader (Lab Systems, Finland). […] The baseline glycogen phosphorylase a activity in the absence of test substance was determined by adding 10 μl of buffer solution T (0.1% DMSO). The mixture was incubated at room temperature for 40 minutes, and the liberated inorganic phosphate was measured by the general method of Drueckes et al. (Drueckes P, Schinzel R, Palm D, Anal Biochem 1995 Sep. 1;230(1):173-177) with the following modifications: 50 μl of a stop solution of 7.3 mM ammonium molybdate, 10.9 mM zinc acetate, 3.6% ascorbic acid, 0.9% SDS are added to 50 μl of the enzyme mixture. After incubation at 45° C. for 60 minutes, the absorption at 820 nm was measured. […]

- inhibition at 10 µM: 87%
Compound: CCOC(=O)N1CCC(NC(=O)c2ccc(Cl)c(NC(=O)NC(=O)c3ccccc3Cl)c2)CC1 [Example 1, Ethyl 4-{4-chloro-3-[3-(2-chlorobenzoyl)ureido]benzoylamino}piperidine-1-carboxylate]
